Assay: Inhibition of human 11-beta HSD in microsomes from HEK293 cells by SPA method

| Compound | IC50 |
| --- | --- |
| CC1CCN(C(=O)c2ccc(CSc3ccc(Cl)cc3)cc2)CC1 | 235 nM |
| O=C(c1cncc(COc2c(Cl)cccc2Cl)c1)N1CCCCC1c1cccnc1 (stereo unspecified) | 2 nM |
| O=C(c1cncc(CS(=O)(=O)c2c(Cl)cccc2Cl)c1)N1CCCC1 | 2140 nM |
| CC1CCN(C(=O)c2ccc(CS(=O)(=O)c3c(Cl)cccc3Cl)cn2)CC1 | 2130 nM |
| CC1(C)CCCN(C(=O)c2cccc(-c3ccc(OC(F)(F)F)cc3)n2)C1 | 1.1 nM |
| CC1CCN(C(=O)c2cccc(S(=O)(=O)c3ccccc3Cl)n2)CC1 | 4670 nM |
| O=C(c1cncc(CS(=O)(=O)c2c(Cl)cccc2Cl)c1)N1CCCCCCCC1 | 2.5 nM |
| CC1(C)CCCN(C(=O)c2cccc(COc3c(Cl)cc(Cl)cc3Cl)n2)C1 | 6.5 nM |
| CC1CCN(C(=O)c2cc(CS(=O)(=O)c3c(Cl)cccc3Cl)ccn2)CC1 | 319 nM |
| CC1CCN(C(=O)c2cccc(Nc3ccccc3Cl)n2)CC1 | 381 nM |
| O=C(c1cncc(CS(=O)(=O)c2c(Cl)cccc2Cl)c1)N1CCCCC1 | 220 nM |
| CC1CCN(C(=O)c2ccc(CS(=O)(=O)c3c(Cl)cccc3Cl)nc2)CC1 | 2050 nM |
| CC1(C)C[C@H]2C[C@](C)(CN2C(=O)c2cncc(COc3c(Cl)cccc3Cl)c2)C1 | 1.7 nM |

The next lines start with the values.

| IC50 | Compound |
| --- | --- |
| 4.6 nM | O=C(c1cccc(COc2c(Cl)cccc2Cl)n1)N1CCCC2CCCCC21 (stereo unspecified) |
| 13 nM | CC1CCN(C(=O)c2cccc(CS(=O)(=O)c3c(Cl)cccc3Cl)c2)CC1 |
| 2.9 nM | CC1(C)CCCN(C(=O)c2cccc(-c3ccccc3Cl)n2)C1 |
| 21 nM | O=C(c1cncc(CS(=O)(=O)c2c(Cl)cccc2Cl)c1)N1CCCCCC1 |
| 7.2 nM | CC1CCN(C(=O)c2cccc(CSc3c(Cl)cccc3Cl)n2)CC1 |
| 218 nM | CC1CCN(C(=O)c2cccc(Sc3ccccc3Cl)n2)CC1 |
| 106 nM | CC1CCN(C(=O)c2ccnc(CS(=O)(=O)c3c(Cl)cccc3Cl)c2)CC1 |
| 22 nM | CC1CCN(C(=O)c2cncc(CS(=O)(=O)c3c(Cl)cccc3Cl)c2)CC1 |
| 2 nM | O=C(c1cccc(-c2ccccc2[N+](=O)[O-])n1)N1CCCC2CCCCC21 (stereo unspecified) |
| 282 nM | CC1CCN(C(=O)c2cccc(Oc3ccccc3Cl)n2)CC1 |
| 3.6 nM | O=C(c1cccc(-c2ccc(C(F)(F)F)cc2)n1)N1CCCC2CCCCC21 (stereo unspecified) |
| 0.1 nM | Cc1ccc(-c2cccc(C(=O)N3CCCC(C)(C)C3)n2)cc1F |
| 4.7 nM | O=C(c1cccc(-c2ccccc2-c2ccccc2)n1)N1CCCC2CCCCC21 (stereo unspecified) |
| 1.1 nM | CC1(C)CCCN(C(=O)c2cccc(-c3ccc(Cl)cc3)n2)C1 |
| > 10000 nM | O=C(c1cncc(CS(=O)(=O)c2c(Cl)cccc2Cl)c1)N1CCOCC1 |
| 2350 nM | NC(=O)C1CCN(C(=O)c2cncc(CS(=O)(=O)c3c(Cl)cccc3Cl)c2)CC1 |
| 79 nM | CC1CCN(C(=O)c2cccc(COc3c(Cl)cccc3Cl)n2)CC1 |
| 11 nM | O=C(c1cncc(CS(=O)(=O)c2c(Cl)cccc2Cl)c1)N1CCCCCCC1 |

— ChEMBL document CHEMBL1145557, “Pyridine amides as potent and selective inhibitors of 11beta-hydroxysteroid dehydrogenase type 1” (Bioorg Med Chem Lett, 2008)
